PubChem BioAssay (NCI)
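Interpolation was linear, between the two tested concentrations surrounding the appropriate level; five concentrations were tested over 48 hours in 96-well plates. TGI: concentration producing complete growth inhibition.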 Where a SMILES comes first, the peptide text is derived from it. [ ]: non-standard residue; d: D form.

What was measured:
Test in all cases: NCI-60 cell line screen, 48 h
[1] = test system: IGROV1 ovarian
[2] = test system: NCI-H522 lung
[3] = test system: SK-MEL-5 melanoma
[4] = test system: SNB-75 CNS
[5] = test system: SR leukemia
[6] = test system: UACC-257 melanoma
[7] = test system: MCF7 breast
[8] = test system: SK-OV-3 ovarian
[9] = test system: HS 578T breast
[10] = test system: MDA-N
[11] = test system: PC-3 prostate

Structure (SMILES) | TGI [1] [µM] | TGI [2] [µM] | TGI [3] [µM] | TGI [4] [µM] | TGI [5] [µM] | TGI [6] [µM] | TGI [7] [µM] | TGI [8] [µM] | TGI [9] [µM] | TGI [10] [µM] | TGI [11] [µM]
COc1ccc(C(C2=C(O)CC(C)OC2=O)C2=C(O)CC(C)OC2=O)cc1 (stereo not given) | > 100 | > 100 | > 100 | > 100 | > 100 | > 100 | – | – | – | – | –
CC(C)C[C@H](NC(=O)[C@H](CC(C)C)NC(=O)[C@@H](Cc1c[nH]c2ccccc12)NC(=O)[C@H](Cc1ccccc1)NC(=O)[C@@H](Cc1c[nH]c2ccccc12)NC(=O)[C@H](CCC(N)=O)NC(=O)[C@@H](CCC(N)=O)NC(=O)[C@@H]1CCCN1C(=O)[C@@H](CCCCN)NC(=O)[C@H]1CCCN1C(=O)[C@H](N)CCCN=C(N)N)C(N)=O (H-[dR][dP][dK]P[dQ]Q[dW]F[dW]LL-NH2) | > 100 | > 100 | > 100 | > 100 | – | > 100 | > 100 | > 100 | – | – | –
O=C(O)C(Cc1ccccc1)Cc1ccccc1 | > 100 | > 100 | > 100 | > 100 | – | > 100 | > 100 | > 100 | > 100 | > 100 | > 100
C=C(C)C1(Sc2ccc(OC)cc2)CC1 | 98.4 | – | 31.6 | 78.5 | 37.4 | 55.7 | > 100 | > 100 | – | > 100 | > 100
COc1cc2c3c(n(C)c(=O)c2cc1OC)-c1cc2c(cc1/C3=C\CCCCl)OCO2 | > 100 | > 100 | 70.6 | 32.2 | – | > 100 | > 100 | 49.3 | > 100 | > 100 | > 100
C/C(=N\N=C(N)N)C(CN1CCOCC1)C(c1ccccc1)c1c(O)c2ccccc2oc1=O (stereo not given) | > 100 | > 100 | > 100 | 99.4 | > 100 | > 100 | – | > 100 | – | – | –
CCSC12OC3(CCCCCN3C1=O)C1C(=O)N(c3ccccc3)C(=O)C12 (stereo not given) | > 100 | > 100 | > 100 | > 100 | > 100 | > 100 | – | > 100 | > 100 | > 100 | > 100
O=C(CC12C3C4C1C1C2C3C41CC(=O)NO)NO (stereo not given) | – | 77.4 | > 100 | 81 | > 100 | 64.3 | – | – | – | – | –
N=C(N)SCc1nc(-c2ccc(Cl)cc2)no1 | > 100 | 25.1 | > 100 | 59.4 | 21.9 | > 100 | 30.1 | > 100 | > 100 | – | 37.5
N#CC1=C(O)NC(O)=C(C#N)C1c1c(Cl)cccc1Cl | > 100 | > 100 | > 100 | 48.4 | > 100 | > 100 | – | 69.1 | – | – | –
CC1CN(c2cc3c(cc2F)c(=O)c(C(=O)O)cn3-c2ccc(N3CCN(C)CC3)cn2)CC(C)N1 (stereo not given) | > 100 | – | – | > 100 | > 100 | > 100 | > 100 | > 100 | > 100 | > 100 | > 100
O=C1CCCC1CC(CN1CCOCC1)Sc1nnnn1-c1ccccc1 (stereo not given) | > 100 | > 100 | > 100 | 96.7 | > 100 | > 100 | > 100 | > 100 | – | > 100 | > 100
NS(=O)(=O)c1nnc(NS(=O)(=O)c2cccc3cccnc23)s1 | – | – | > 100 | – | > 100 | > 100 | > 100 | > 100 | > 100 | > 100 | –
O=S(=O)(O)c1cc(S(=O)(=O)O)c2cc(N=Nc3ccc(N=Nc4ccc(/C=C/c5ccc(N=[N+]([O-])c6ccc(/C=C/c7ccc(N=Nc8ccc(N=Nc9ccc%10cc(S(=O)(=O)O)cc(S(=O)(=O)O)c%10c9)cc8)cc7S(=O)(=O)O)c(S(=O)(=O)O)c6)cc5S(=O)(=O)O)c(S(=O)(=O)O)c4)cc3)ccc2c1 | > 100 | > 100 | > 100 | > 100 | – | > 100 | > 100 | > 100 | – | – | –
CC(=O)NC1C(OCc2ccccc2)OC(CO)C(O)C1OC(C)C(=O)NC(C(=O)NC(CCC(=O)NCCCNc1ccc([N+](=O)[O-])c2[nH]c3ccccc3c(=O)c12)C(N)=O)C(C)C (stereo not given) | > 100 | > 100 | > 100 | > 100 | – | > 100 | > 100 | > 100 | > 100 | > 100 | > 100
CSc1ccc(N2C(=O)C3c4[nH]c5ccccc5c4C4CCC(C(C)(C)C)CC4C3C2=O)cc1 (stereo not given) | 32 | 40.4 | 58.5 | 39.2 | 23.2 | > 100 | – | 32.7 | – | – | –
O=C1Sc2ccccc2C(=O)N2CCSC12 (stereo not given) | – | – | > 100 | – | > 100 | > 100 | – | > 100 | – | – | –
C1=CC2C(C3CN(c4ccccc4)N=C13)C1C3C4C=CC21C=CC43 (stereo not given) | > 100 | > 100 | > 100 | > 100 | – | > 100 | > 100 | > 100 | > 100 | – | > 100
NC1(c2cc3ccccc3s2)CCCCCC1 | 32.6 | – | 28.8 | 23.2 | 36.6 | 30.1 | 29.7 | 31.2 | – | 30.4 | 24
O=C1CCC2(O)c3ccccc3C2Cc2ccccc21 (stereo not given) | > 100 | – | – | > 100 | > 100 | > 100 | – | – | – | – | –
CCOP(=O)(OCC)C(Nc1ccc(Cl)cc1)c1ccc(F)cc1 (stereo not given) | – | 49.7 | 32.8 | 84.8 | > 100 | 44 | – | > 100 | 54.4 | 43.1 | –
O/N=C1\C/C(=N\O)c2c(Br)sc(Br)c21 | 97.8 | 32.6 | > 100 | 51.3 | > 100 | > 100 | > 100 | > 100 | 30.9 | > 100 | –
COc1cc2nc(-c3cccs3)nc(Nc3ccccc3C(=O)NN)c2cc1OC | > 100 | > 100 | > 100 | > 100 | > 100 | > 100 | > 100 | > 100 | > 100 | – | > 100
